Source: patent US12396961B2, “Compounds and compositions for intracellular delivery of agents” (ModernaTX, Inc., priority 2015, dated 2025)

Tests used:
[1] = Particle size and polydispersity index (Zetasizer Nano ZS); format: physicochemical
Excerpt: Nanoparticle compositions may be characterized by a variety of methods. For example, microscopy (e.g., transmission electron microscopy or scanning electron microscopy) may be used to examine the morphology and size distribution of a nanoparticle composition. Dynamic light scattering or potentiometry (e.g., potentiometric titrations) may be used to measure zeta potentials. Dynamic light scattering may also be utilized to determine particle sizes. Instruments such as the Zetasizer Nano ZS (Malvern Instruments Ltd, Malvern, Worcestershire, UK) may also be used to measure multiple characteristics of a nanoparticle composition, such as particle size, polydispersity index, and zeta potential.
A Zetasizer Nano ZS (Malvern Instruments Ltd, Malvern, Worcestershire, UK) can be used to determine the particle size, the polydispersity index (PDI) and the zeta potential of the nanoparticle compositions in 1×PBS in determining particle size and 15 mM PBS in determining zeta potential.

[2] = test system: luciferase (Luc) mRNA expression; assay: Luc expression (AUC) in CD-1 mice relative to MC3; format: in vivo; settings: for Lipid/MC3 AUC CD-1 mice 0.5 mpk: Table 7b, Luc expression; for Lipid/MC3 Luc CD-1 (mice): Luc expression relative to MC3, CD-1 mice
Description: FIG. 15 is a graph summarizing luciferase expression levels at 6 h after administration of nanoparticle compositions containing compounds of the disclosure to CD-1 mice at a dose of 0.5 mpk. Total light flux values were acquired via body luminescent imaging (BLI) 6 h after administration. In this Figure, the numbers 1-7 and 10 refer to the compositions containing Compounds 4-10 and MC3 respectively.
In contrast, hEPO expression in rats induced by administration of nanoparticle composition including compound according to one of formulae (I), (Ia1)-(Ia6), (Ib), (II), (IIa), (III), and (IIIa) was substantially lower than that measured for MC3. […] Table 7c and 7d show additional protein expressions and clearance data from compositions with various compounds disclosed herein as compared to with MC3.

[3] = test system: LDLr mRNA / Luc expression; assay: Expression (AUC) in LDLr−/− mice relative to KL22; format: in vivo; settings: Table 7b
[4] = test system: luciferase (Luc) mRNA expression; assay: Expression of Luc, bioluminescence (total flux) after intravenous administration to mice; format: in vivo; settings: for Luc expression in mice compared with MC3 (Table 7a): in words; for Total flux (Luc expression), comparison in words over the time points of the table named: mice i.v. 0.5 mg/kg, 3, 6, 24 hours
Description: In order to monitor how effectively various nanoparticle compositions deliver therapeutic and/or prophylactic agents to targeted cells, different nanoparticle compositions including a particular therapeutic and/or prophylactic agent (for example, a modified or naturally occurring RNA such as an mRNA) are prepared and administered to rodent populations. Mice are intravenously, intramuscularly, intraarterially, or intratumorally administered a single dose including a nanoparticle composition with a formulation such as those provided in Table 1. In some instances, mice may be made to inhale doses. Dose sizes may range from 0.001 mg/kg to 10 mg/kg, where 10 mg/kg describes a dose including 10 mg of a therapeutic and/or prophylactic agent in a nanoparticle composition for each 1 kg of body mass of the mouse. A control composition including PBS may also be employed.
Upon administration of nanoparticle compositions to mice, dose delivery profiles, dose responses, and toxicity of particular formulations and doses thereof can be measured by enzyme-linked immunosorbent assays (ELISA), bioluminescent imaging, or other methods. For nanoparticle compositions including mRNA, time courses of protein expression can also be evaluated. Samples collected from the rodents for evaluation may include blood, sera, and tissue (for example, muscle tissue from the site of an intramuscular injection and internal tissue); sample collection may involve sacrifice of the animals.
The efficacy of the nanoparticle compositions presented in Tables 1, la, 17-1, 19-1, 20-1 and 21-1 was evaluated with a bioluminescence study. Formulations were administered intravenously to mice (n=6) at a dosage of 0.5 mg/kg (mpk) and bioluminescence measured at 3, 6, and 24 hour time points. The standard MC3 formulation and a PBS control were evaluated for comparison.

hEPO mRNA expression [5] = assay: Expression of hEPO in mice (CD-1); format: in vivo, CD-1 mice; settings: for Lipid/MC3 AUC: Table 7e, hEPO expression, CD-1 mice, 0.5 mpk
Excerpt: FIG. 12 is a set of graphs illustrating hEPO expression levels in CD-1 mice dosed with compounds of the disclosure, compared to MC3. PBS is used as control. […] In graphs A-C numbers 1-14 refer to compositions containing the following: 1: Compound 73, 2: Compound 80, 3: Compound 70; 4: Compound 81; 5: Compound 69; 6: Compound 82; 7: Compound 83; 8: Compound 62; 9: Compound 84; 10: Compound 85; 11: Compound 86; 12: Compound 87; 13: MC3; 14: PBS.
FIG. 13 is a graph showing hEPO levels (pg/mL) in CD-1 mice up to −25 h after administration of a nanoparticle composition containing compounds of the disclosure, compared to a composition containing MC3. Numbers 1-13 refer to compositions containing the following: 1: Compound 73, 2: Compound 80, 3: Compound 70; 4: Compound 81; 5: Compound 69; 6: Compound 82; 7: Compound 83; 8: Compound 62; 9: Compound 84; 10: Compound 85; 11: Compound 86; 12: Compound 87; 13: MC3. […]

hEPO mRNA expression [6] = assay: Expression of hEPO after intravenous administration to rats; format: in vivo; settings: rats i.v.; 3, 6, 24 hours
Description: PBS (phosphate buffered saline) is used as control.
Formulations were prepared according to Table 5 and included mRNA encoding hEPO.
[…] After the 48 hour time point, livers and spleens were harvested and frozen.

[7] = Table 1, DOPE 40:20:38.5:1.5, Luc mRNA

CCCCCCCCCCCCN(CCN(CCCCCCCCC)CCCCCCCCC)CC(=O)N1CCN(C(=O)CN(CCCCCCCCC)CCCCCCCCC)CC1 [Compound 5, 2-(Dinonylamino)-1-(4-(N-(2-(dinonylamino)ethyl)-N-dodecylglycyl)piperazin-1-yl)ethan-1-one]
PDI [1, 7]: 0.140
Lipid/MC3 AUC CD-1 mice 0.5 mpk [2]: 2.62
Lipid/KL22 AUC LDLr−/− mice 0.5 mpk, LDLr [3]: 1.86

CCCCCCCCCCCCN(CCCCCCCCCCCC)CCN(CCCCCCCCC)CC(=O)N1CCN(C(=O)CN(CCCCCCCCC)CCCCCCCCC)CC1 [Compound 6, 2-((2-(Didodecylamino)ethyl)(nonyl)amino)-1-(4-(dinonylglycyl)piperazin-1-yl)ethan-1-one]
PDI [1, 7]: 0.160
Lipid/MC3 AUC CD-1 mice 0.5 mpk [2]: 1.72
Lipid/KL22 AUC LDLr−/− mice 0.5 mpk, LDLr [3]: 0.37

CCCCCCCCCCCCN(CCCCCCCCCCCC)CCN(CCCCCCCCCCCC)CC(=O)N1CCN(C(=O)CN(CCCCCCCCC)CCCCCCCCC)CC1 [Compound 7, 2-((2-(Didodecylamino)ethyl)(dodecyl)amino)-1-(4-(dinonylglycyl)piperazin-1-yl)ethan-1-one]
PDI [1, 7]: 0.130
Lipid/MC3 AUC CD-1 mice 0.5 mpk [2]: 1.51
Lipid/KL22 AUC LDLr−/− mice 0.5 mpk, LDLr [3]: 2.46

CCCCCCCCCCCCN(CCCCCCCCCCCC)CC(=O)N1CCN(C(=O)CN(CCCCCCCCC)CCN(CCCCCCCCC)CCCCCCCCC)CC1 [Compound 8, 2-(Didodecylamino)-1-(4-(N-(2-(dinonylamino)ethyl)-N-nonylglycyl)piperazin-1-yl)ethan-1-one]
PDI [1, 7]: 0.110
Lipid/MC3 AUC CD-1 mice 0.5 mpk [2]: 2.33
Lipid/KL22 AUC LDLr−/− mice 0.5 mpk, LDLr [3]: 3.74

CCCCCCCCCCCCN(CCCCCCCCCCCC)CC(=O)N1CCN(C(=O)CN(CCCCCCCCCCCC)CCN(CCCCCCCCC)CCCCCCCCC)CC1 [Compound 9, 2-(Didodecylamino)-1-(4-(N-(2-(dinonylamino)ethyl)-N-dodecylglycyl)piperazin-1-yl)ethan-1-one]
PDI [1, 7]: 0.170
Size (nm) ([1]; Table 1, lipid:DOPE:Chol:PEG-DMG 40:20:38.5:1.5, Luc mRNA, MC3 standard formulation): 78.0 nm
Lipid/MC3 AUC CD-1 mice 0.5 mpk [2]: 0.73
Lipid/KL22 AUC LDLr−/− mice 0.5 mpk, LDLr [3]: 0.58

CCCCCCCCCCCCN(CCCCCCCCCCCC)CCN(CCCCCCCCCCCC)CCN1CCN(CCN(CCCCCCCCCCCC)CCCCCC(=O)OCCCCC)CC1 [Compound 12, Pentyl 6-((2-(4-(2-((2-(didodecylamino)ethyl)(dodecyl)amino)ethyl)piperazin-1-yl)ethyl)(dodecyl)amino)hexanoate]
PDI [1, 7]: 0.096
Luc expression in mice compared with MC3 (Table 7a) [4]: significantly lower
hEPO expression in mice compared with MC3 (Table 7a) (hEPO mRNA expression [5]; mice, in words): substantially higher
Lipid/MC3 Luc CD-1 (mice) [2]: 0.21

CCCCCCCCCCCCN(CCCCCCCCCCCC)CCN(CCCCCCCCCCCC)CCN1CCN(CCN(CCCCCC(=O)OCCCCC)CCCCCC(=O)OCCCCC)CC1 [Compound 14, Dipentyl 6,6′-((2-(4-(2-((2-(didodecylamino)ethyl)(dodecyl)amino)ethyl)piperazin-1-yl)ethyl)azanediyl)dihexanoate]
PDI [1, 7]: 0.008
Luc expression in mice compared with MC3 (Table 7a) [4]: significantly lower
Lipid/MC3 Luc CD-1 (mice) [2]: 0.070

CCCCCCCCCCCCN(CCCCCCCCCCCC)CCN(CCCCCCCCCCCC)CCN1CCN(CCN(CCCCCCCCCCCC(=O)OC)CCCCCCCCCCCC(=O)OC)CC1 [Compound 16, Dimethyl 12,12′-((2-(4-(2-((2-(didodecylamino)ethyl)(dodecyl)amino)ethyl)piperazin-1-yl)ethyl)azanediyl)didodecanoate]
PDI ([1]; formulated with hEPO mRNA): 0.140
hEPO expression at each time point, comparison in words (Table 6) (hEPO mRNA expression [6]): lowest hEPO expression

CCCCC/C=C\C/C=C\CCCCCCCCN(CCO)CCCCCCCCCCCC [Compound 17-4, 2-(Dodecyl((9Z,12Z)-octadeca-9,12-dien-1-yl)amino)ethan-1-ol]
Total flux (Luc expression), comparison in words over the time points of the table named [4]: substantially higher flux than compositions including Compounds 17-2, 17-3, and 17-7

CCCCCCCC/C=C\CCCCCCCCN(CCO)CCCCCCCC/C=C\CCCCCCCC [Compound 17-8, 2-(Di((Z)-octadec-9-en-1-yl)amino)ethan-1-ol]
Total flux (Luc expression), comparison in words over the time points of the table named [4]: substantially higher flux than compositions including Compounds 17-2, 17-3, and 17-7

CCCCCCCCCCCCN(CCCCCCCCCCCC)CCN1CCNCC1 [Compound 19-2, N-Dodecyl-N-(2-(piperazin-1-yl)ethyl)dodecan-1-amine]
Total flux (Luc expression), comparison in words over the time points of the table named [4]: lowest total flux

CCCCCCCCCCCCN(CCCCCCCCCCCC)CCN1CCN(Cc2ccc(OC)cc2)CC1 [Compound 19-5, N-Dodecyl-N-(2-(4-(4-methoxybenzyl)piperazin-1-yl)ethyl)dodecan-1-amine]
Total flux (Luc expression), comparison in words over the time points of the table named [4]: next highest flux

CCCCC/C=C\C/C=C\CCCCCCCCN(CCCCCCCC/C=C\C/C=C\CCCCC)CCN1CCN(CCCCCCCCCCCC)CC1 [Compound 19-6, (9Z,12Z)—N-(2-(4-Dodecylpiperazin-1-yl)ethyl)-N-((9Z,12Z)-octadeca-9,12-dien-1-yl)octadeca-9,12-dien-1-amine]
Total flux (Luc expression), comparison in words over the time points of the table named [4]: next highest flux

CCCCCCCCCN(CCCC(=O)OCCCCC)CCCC1CCN(C(=O)CCN(CCCCCCCCC)CCN(CCCCCCCCC)CCCCCCCCC)CC1 [Compound 84, Pentyl 4-((3-(1-(3-((2-(dinonylamino)ethyl)(nonyl)amino)propanoyl)piperidin-4-yl)propyl)(nonyl)amino)butanoate]
Lipid/MC3 AUC (hEPO mRNA expression [5]): 1.43

CCCCCCCCCN(CCCCCCCCC)CCCC1CCN(C(=O)CCN(CCCCCCCCC)CCN(CCCCCCCCC)CCCCCCCCC)CC1 [Compound 85, 3-((2-(Dinonylamino)ethyl)(nonyl)amino)-1-(4-(3-(dinonylamino)propyl)piperidin-1-yl)propan-1-one]
Lipid/MC3 AUC (hEPO mRNA expression [5]): 3.54

CCCCCCCCCN(CCCOC(=O)CCCCC)CCC(=O)N1CCN(C(=O)CCN(CCCCCCCCC)CCN(CCCCCCCCC)CCCCCCCCC)CC1 [Compound 86, 3-((3-(4-(3-((2-(Dinonylamino)ethyl)(nonyl)amino)propanoyl)piperazin-1-yl)-3-oxopropyl)(nonyl)amino)propyl Hexanoate]
Lipid/MC3 AUC (hEPO mRNA expression [5]): 0.49

CCCCCCCCCN(CCCOC(=O)CCCCC)CCCC1CCN(C(=O)CCN(CCCCCCCCC)CCN(CCCCCCCCC)CCCCCCCCC)CC1 [Compound 87, 3-((3-(1-(3-((2-(Dinonylamino)ethyl)(nonyl)amino)propanoyl)piperidin-4-yl)propyl)(nonyl)amino)propyl hexanoate]
Lipid/MC3 AUC (hEPO mRNA expression [5]): 0.80
